Test results taken from the supplement of paper PMC10307832.

Legend:
Assay in all cases: relative viability (nuclei count vs DMSO), 5 days (fraction); higher = more cells survive
[1] = system: NCI-H520
How it was run: (§1)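 Each reported value is a median over duplicate plates. It expresses relative viability: treated-well nuclei count divided by vehicle-well nuclei count. Lung cancer cell lines in 1536-well plates were dosed by pin tool a day after seeding, alone with one drug or with a fixed anchor-drug dose plus five library-drug doses (not always all listed) in √10 steps, and nuclei were counted after 5 days.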

[2] = system: NCI-H1975
How it was run: as §1

[3] = system: NCI-H2347
How it was run: as §1

[4] = system: EMC-BAC-2
How it was run: as §1

[5] = system: SW 1573
How it was run: as §1

[6] = system: ABC-1
How it was run: as §1

[7] = system: NCI-H1355
How it was run: as §1

[8] = system: NCI-H1793
How it was run: as §1

[9] = system: PC-3 [JPC-3]
How it was run: as §1

[10] = system: NCI-H460
How it was run: as §1

[11] = system: NCI-H2009
How it was run: as §1

[12] = system: NCI-H2126
How it was run: as §1

[13] = system: NCI-H1944
How it was run: as §1

[14] = system: LCLC-97TM1
How it was run: as §1

[15] = system: NCI-H1993
How it was run: as §1

[16] = system: NCI-H441
How it was run: as §1

[17] = system: SK-LU-1
How it was run: as §1

[18] = system: NCI-H1666
How it was run: as §1

[19] = system: NCI-H727
How it was run: as §1

[20] = system: PC-14
How it was run: as §1

[21] = system: NCI-H1755
How it was run: as §1

[22] = system: NCI-H2170
How it was run: as §1

[23] = system: NCI-H647
How it was run: as §1

Q: Which results are given for O=C(O)CCCCC(CCSCc1ccccc1)SCc1ccccc1 (centres undefined) [CPI-613] + Nc1ncn([C@H]2C[C@H](O)[C@@H](CO)O2)c(=O)n1 [Decitabine] (partner 2 µM)?
A: relative viability ([1]; first compound 5 µM): 0.48; relative viability ([1]; first compound 15.81 µM): 0.502; relative viability ([1]; first compound 50 µM): 0.428; relative viability ([1]; first compound 158.11 µM): 0.271; relative viability ([1]; first compound 500 µM): 0.149; relative viability ([2]; first compound 5 µM): 0.391; relative viability ([2]; first compound 15.81 µM): 0.413; relative viability ([2]; first compound 50 µM): 0.399; relative viability ([2]; first compound 158.11 µM): 0.412; relative viability ([2]; first compound 500 µM): 0.0581; relative viability ([3]; first compound 5 µM): 0.652; relative viability ([3]; first compound 15.81 µM): 0.553; relative viability ([3]; first compound 50 µM): 0.706; relative viability ([3]; first compound 158.11 µM): 0.614; relative viability ([3]; first compound 500 µM): 0.347; relative viability ([4]; first compound 5 µM): 0.982; relative viability ([4]; first compound 15.81 µM): 0.9; relative viability ([4]; first compound 50 µM): 0.942; relative viability ([4]; first compound 158.11 µM): 0.74; relative viability ([4]; first compound 500 µM): 0.632; relative viability ([5]; first compound 5 µM): 0.437; relative viability ([5]; first compound 15.81 µM): 0.399; relative viability ([5]; first compound 50 µM): 0.498; relative viability ([5]; first compound 158.11 µM): 0.207; relative viability ([5]; first compound 500 µM): 0.0549; relative viability ([6]; first compound 5 µM): 1.18; relative viability ([6]; first compound 15.81 µM): 1.28; relative viability ([6]; first compound 50 µM): 1.37; relative viability ([6]; first compound 158.11 µM): 0.698; relative viability ([6]; first compound 500 µM): 0.864; relative viability ([7]; first compound 5 µM): 0.34; relative viability ([7]; first compound 15.81 µM): 0.337; relative viability ([7]; first compound 50 µM): 0.342; relative viability ([7]; first compound 158.11 µM): 0.341; relative viability ([7]; first compound 500 µM): 0.114; relative viability ([8]; first compound 5 µM): 0.468; relative viability ([8]; first compound 15.81 µM): 0.51; relative viability ([8]; first compound 50 µM): 0.539; relative viability ([8]; first compound 158.11 µM): 0.25; relative viability ([8]; first compound 500 µM): 0.108; relative viability ([9]; first compound 5 µM): 0.799; relative viability ([9]; first compound 50 µM): 0.879; relative viability ([9]; first compound 158.11 µM): 0.716; relative viability ([9]; first compound 500 µM): 0.622; relative viability ([10]; first compound 5 µM): 0.513; relative viability ([10]; first compound 15.81 µM): 0.396; relative viability ([10]; first compound 50 µM): 0.456; relative viability ([10]; first compound 158.11 µM): 0.115; relative viability ([10]; first compound 500 µM): 0.0075; relative viability ([11]; first compound 5 µM): 0.393; relative viability ([11]; first compound 15.81 µM): 0.397; relative viability ([11]; first compound 50 µM): 0.385; relative viability ([11]; first compound 158.11 µM): 0.228; relative viability ([11]; first compound 500 µM): 0.0406; relative viability ([12]; first compound 5 µM): 0.536; relative viability ([12]; first compound 15.81 µM): 0.578; relative viability ([12]; first compound 50 µM): 0.599; relative viability ([12]; first compound 158.11 µM): 0.188; relative viability ([12]; first compound 500 µM): 0.132; relative viability ([13]; first compound 5 µM): 0.429; relative viability ([13]; first compound 15.81 µM): 0.406; relative viability ([13]; first compound 50 µM): 0.395; relative viability ([13]; first compound 158.11 µM): 0.277; relative viability ([13]; first compound 500 µM): 0.168; relative viability ([14]; first compound 5 µM): 0.251; relative viability ([14]; first compound 15.81 µM): 0.213; relative viability ([14]; first compound 50 µM): 0.261; relative viability ([14]; first compound 158.11 µM): 0.0572; relative viability ([14]; first compound 500 µM): 0.051; relative viability ([15]; first compound 5 µM): 0.643; relative viability ([15]; first compound 15.81 µM): 0.56; relative viability ([15]; first compound 50 µM): 0.679; relative viability ([15]; first compound 158.11 µM): 0.61; relative viability ([15]; first compound 500 µM): 0.327; relative viability ([16]; first compound 5 µM): 0.261; relative viability ([16]; first compound 15.81 µM): 0.253; relative viability ([16]; first compound 50 µM): 0.231; relative viability ([16]; first compound 158.11 µM): 0.148; relative viability ([16]; first compound 500 µM): 0.0077; relative viability ([17]; first compound 5 µM): 0.693; relative viability ([17]; first compound 15.81 µM): 0.527; relative viability ([17]; first compound 50 µM): 0.533; relative viability ([17]; first compound 158.11 µM): 0.314; relative viability ([17]; first compound 500 µM): 0.0957; relative viability ([18]; first compound 5 µM): 0.676; relative viability ([18]; first compound 15.81 µM): 0.601; relative viability ([18]; first compound 50 µM): 0.798; relative viability ([18]; first compound 158.11 µM): 0.639; relative viability ([18]; first compound 500 µM): 0.509; relative viability ([19]; first compound 5 µM): 0.803; relative viability ([19]; first compound 15.81 µM): 0.786; relative viability ([19]; first compound 50 µM): 0.894; relative viability ([19]; first compound 158.11 µM): 0.776; relative viability ([19]; first compound 500 µM): 0.828; relative viability ([20]; first compound 5 µM): 0.266; relative viability ([20]; first compound 15.81 µM): 0.201; relative viability ([20]; first compound 50 µM): 0.23; relative viability ([20]; first compound 158.11 µM): 0.109; relative viability ([20]; first compound 500 µM): 0.0133; relative viability ([21]; first compound 5 µM): 0.732; relative viability ([21]; first compound 15.81 µM): 0.738; relative viability ([21]; first compound 50 µM): 0.67; relative viability ([21]; first compound 158.11 µM): 0.699; relative viability ([21]; first compound 500 µM): 0.543; relative viability ([22]; first compound 5 µM): 0.458; relative viability ([22]; first compound 15.81 µM): 0.484; relative viability ([22]; first compound 50 µM): 0.486; relative viability ([22]; first compound 158.11 µM): 0.342; relative viability ([22]; first compound 500 µM): 0.199; relative viability ([23]; first compound 5 µM): 0.345; relative viability ([23]; first compound 15.81 µM): 0.462; relative viability ([23]; first compound 50 µM): 0.352; relative viability ([23]; first compound 158.11 µM): 0.0749; relative viability ([23]; first compound 500 µM): 0.0141
